Patent US11850244B2, “Drug delivery systems and methods for treatment of bladder dysfunction or disorder using trospium” (TARIS BIOMEDICAL LLC, priority 2012, dated 2023)
“Also recorded” adds a separate entry of the source. Structures can show the parent of a compound that is named as a salt.

Tests used:
[1] = Antimuscarinic screen in rat bladder perfusion model (plasma, urine and tissue drug levels); details: for total recovery: theoretical dose 3.3 mg/day
From the text: The drugs were perfused at varying rates, concentrations, and times. Serial blood and urine samples were taken, and tissues (bladder, ureter, kidney, and prostate) were sampled to determine drug levels and distribution. Tissue histological exams were completed for safety.

urothelium = test: Intravesical pharmacology screen in rat bladder perfusion model with acetic acid; details: for acetic acid induced increased intravesical pressure / inter-contraction intervals compared to the control: 0.05-100 μg/mL intravesical, 0.5% acetic acid; for acetic acid induced increased intravesical pressure: FIGS. 7A-7C; for inter-contraction intervals compared to the control: FIGS. 7D-7F
Description: Intercontraction intervals and intravesical pressure were measured during a control periods and treatment periods.
The rats' bladder catheters were connected to a pressure transducer and syringe-pump to allow perfusion. The bladders were perfused (50 μL/minute) with saline for one hour to obtain stable micturition cycles. The perfusion then was switched to a weak acidic solution sufficient to stimulate the noxious receptors in the urothelium without inducing structural or metabolic damage to the tissue. […] A 45 minute baseline was recorded.
The vehicle or antimuscarinic drugs were administered intravesically at escalating concentrations (see Table 2 for drugs and concentrations used) with acetic acid instillation (50 μL/minute). Each dose was administered for a 30-minute period. The intravesical pressure and intercontraction interval was recorded during the last 30 minutes of the control period (baseline) and during the 30 minutes of each treatment period, with one treatment period corresponding to one dose of drug.

[2] = tested on: carbachol 30 μM (M1, M2, M3, AChRa2 agonist); details: low dose protocol 0.1 and 0.5 μg/mL, intravesical; cited from earlier work
[3] = oral therapeutic doses for 5 days; cited from earlier work
normal bladder activity = details: human urine after oral dosing infused into rat bladders; cited from earlier work

Molecule: CCN(CC)CC#CCOC(=O)C(O)(c1ccccc1)C1CCCCC1 (stereo not drawn) [Oxybutynin, oxybutynin chloride]
- systemic absorption following intravesical administration ([1]; compared among the three drugs): significantly higher systemic absorption
- estimated intravesical absorption ([1]; rat, in vivo): 83 % of the intravesical dose
- Effective Urine Concentration ([1]; rat, intravesical perfusion): 1 to 10 µg/mL
- total recovery [1]: low total recovery
- acetic acid induced increased intravesical pressure (urothelium): dose dependent reductions
- inter-contraction intervals compared to the control (urothelium): neither of which altered intercontraction interval
- inter-contraction intervals compared to the control (urothelium; listed as oxybutynin hydrochloride): little effect
- intercontraction interval ratio to baseline [2]: performed similarly

Molecule: Cc1ccc(O)c([C@H](CCN(C(C)C)C(C)C)c2ccccc2)c1 [Toterodine, tolterodine tartrate]
- Effective Urine Concentration ([1]; rat, intravesical perfusion): 1 to 10 µg/mL
- acetic acid induced increased intravesical pressure (urothelium): dose dependent reductions
- inter-contraction intervals compared to the control (urothelium; listed as tolterodine): neither of which altered intercontraction interval
- inter-contraction intervals compared to the control (urothelium; listed as tolterodine tartrate): little effect

Molecule: O=C(O[C@H]1C[C@H]2CC[C@@H](C1)[N+]21CCCC1)C(O)(c1ccccc1)c1ccccc1 [Trospium, trospium chloride]
- urine concentration ([1]; 24-48 hours after exposure): about 150 μg/mL
- urine concentration ([1]; 48-72 hours after exposure): > 125 µg/mL
- Cmax ([1]; rat, in vivo): 0.06 to 0.7 ng/mL
- Effective Urine Concentration ([1]; rat, intravesical perfusion): 1 to 10 µg/mL
- Urine to Plasma Ratio ([1]; rat, intravesical perfusion): 15,380
- total recovery [1]: near the theoretical dose
- acetic acid induced increased intravesical pressure (urothelium): dose dependent reductions
- inter-contraction intervals compared to the control (urothelium; listed as trospium): increase intercontraction interval; also recorded: increased the inter-contraction intervals compared to the control
- inter-contraction intervals compared to the control (urothelium; listed as trospium chloride): kept the inter-contraction intervals closer to the baseline measurement
- urinary retention or significant systemic exposure (urothelium; at intravesical concentration normalizing urothelial sensory function): did not produce urinary retention or significant systemic exposure
- concentration range showing activity (urothelium; intravesical): 0.05 to 100 µg/mL
- active compound excreted in the human's urine [3]: 60-80%
- intercontraction interval ratio to baseline [2]: performed similarly
- effect on bladder capacity and intercontraction interval (normal bladder activity): more positive effect

Molecule: dimethindene maleate
- intercontraction interval ratio to baseline [2]: performed similarly
